Results taken from article PMC11157767 (Molecular Cancer, 2024).

Tested on: TFG-MET allograft tumors
Assay: RNA-sequencing, differential expression and GSEA of TFG-MET allograft tumors
Type: in vivo, mouse
Conditions: for NES / ES: CAP v Veh
Experimental: Error bars display standard error of mean, statistical significance was determined using t-test analysis. (****;p<0.0001, ***;p<0.001, **;p<0.01, *;p<0.05). […] Each dot represents an individual replicate. Error bars display standard error of the mean.
Each dot represents one gene.

Compound: CNC(=O)c1ccc(-c2cnc3ncc(Cc4ccc5ncccc5c4)n3n2)cc1F [Capmatinib]
- NES (GOMF_METHYL_CPG_BINDING, padj 0.00511198): -1.901
- ES (GOMF_MHC_CLASS_I_PROTEIN_BINDING): 0.5483
- NES (GOMF_MHC_CLASS_I_PROTEIN_BINDING, padj 0.0474647): 1.828
- ES (GOMF_MHC_PROTEIN_BINDING): 0.5523
- NES (GOMF_MHC_PROTEIN_BINDING, padj 0.00543159): 2.003
- ES (GOMF_MHC_PROTEIN_COMPLEX_BINDING): 0.5077
- NES (GOMF_MHC_PROTEIN_COMPLEX_BINDING, padj 0.0199782): 1.841
- ES (GOMF_MOLECULAR_CARRIER_ACTIVITY): -0.4555
- NES (GOMF_MOLECULAR_CARRIER_ACTIVITY, padj 0.0120933): -1.714
- ES (GOMF_MONOCARBOXYLIC_ACID_BINDING): 0.3828
- NES (GOMF_MONOCARBOXYLIC_ACID_BINDING, padj 0.0474647): 1.672
- ES (GOMF_MRNA_3_UTR_AU_RICH_REGION_BINDING): -0.5181
- NES (GOMF_MRNA_3_UTR_AU_RICH_REGION_BINDING, padj 0.0473079): -1.618
- NES (GOMF_NUCLEAR_HORMONE_RECEPTOR_BINDING, padj 0.072562): -1.431
- ES (GOMF_NUCLEAR_IMPORT_SIGNAL_RECEPTOR_ACTIVITY): -0.6033
- NES (GOMF_NUCLEAR_IMPORT_SIGNAL_RECEPTOR_ACTIVITY, padj 0.0320889): -1.75
- ES (GOMF_NUCLEAR_LOCALIZATION_SEQUENCE_BINDING): -0.6311
- NES (GOMF_NUCLEAR_LOCALIZATION_SEQUENCE_BINDING, padj 0.00765978): -1.864
- ES (GOMF_NUCLEOSOMAL_DNA_BINDING): -0.5966
- NES (GOMF_NUCLEOSOMAL_DNA_BINDING, padj 0.0072907): -1.89
- ES (GOMF_N_ACETYLTRANSFERASE_ACTIVITY): -0.4164
- NES (GOMF_N_ACETYLTRANSFERASE_ACTIVITY, padj 0.0419799): -1.576
- ES (GOMF_N_ACYLTRANSFERASE_ACTIVITY): -0.4102
- NES (GOMF_N_ACYLTRANSFERASE_ACTIVITY, padj 0.0206273): -1.607
- ES (GOMF_OXIDOREDUCTASE_ACTIVITY_ACTING_ON_PEROXIDE_AS_ACCEPTOR): 0.4091
- NES (GOMF_OXIDOREDUCTASE_ACTIVITY_ACTING_ON_PEROXIDE_AS_ACCEPTOR, padj 0.0419799): 1.715
- ES (GOMF_PATTERN_RECOGNITION_RECEPTOR_ACTIVITY): 0.5546
- NES (GOMF_PATTERN_RECOGNITION_RECEPTOR_ACTIVITY, padj 0.0257673): 1.913
- ES (GOMF_PEPTIDE_LYSINE_N_ACETYLTRANSFERASE_ACTIVITY): -0.4722
- NES (GOMF_PEPTIDE_LYSINE_N_ACETYLTRANSFERASE_ACTIVITY, padj 0.0420426): -1.64
- ES (GOMF_PEPTIDE_N_ACETYLTRANSFERASE_ACTIVITY): -0.5177
- NES (GOMF_PEPTIDE_N_ACETYLTRANSFERASE_ACTIVITY, padj 0.00513885): -1.848
- ES (GOMF_PHOSPHATIDYLINOSITOL_BINDING): -0.3004
- NES (GOMF_PHOSPHATIDYLINOSITOL_BINDING, padj 0.0651825): -1.368
- ES (GOMF_POLY_A_BINDING): -0.5704
- NES (GOMF_POLY_A_BINDING, padj 0.0381242): -1.705
- ES (GOMF_POLY_PURINE_TRACT_BINDING): -0.5827
- NES (GOMF_POLY_PURINE_TRACT_BINDING, padj 0.00978552): -1.871
- ES (GOMF_POLY_PYRIMIDINE_TRACT_BINDING): -0.5996
- NES (GOMF_POLY_PYRIMIDINE_TRACT_BINDING, padj 0.0067416): -1.9
- ES (GOMF_PROMOTER_SPECIFIC_CHROMATIN_BINDING): -0.4442
- NES (GOMF_PROMOTER_SPECIFIC_CHROMATIN_BINDING, padj 0.0320889): -1.624
- ES (GOMF_PROTEIN_DEMETHYLASE_ACTIVITY): -0.5705
- NES (GOMF_PROTEIN_DEMETHYLASE_ACTIVITY, padj 0.0162496): -1.8078
- ES (GOMF_PROTEIN_DIMERIZATION_ACTIVITY): -0.2556
- NES (GOMF_PROTEIN_DIMERIZATION_ACTIVITY, padj 0.0359639): -1.243
- ES (GOMF_PROTEIN_HETERODIMERIZATION_ACTIVITY): -0.3318
- NES (GOMF_PROTEIN_HETERODIMERIZATION_ACTIVITY, padj 0.0174921): -1.498
- ES (GOMF_PROTEIN_KINASE_ACTIVITY): -0.2726
- NES (GOMF_PROTEIN_KINASE_ACTIVITY, padj 0.0456955): -1.304
- ES (GOMF_PROTEIN_PHOSPHATASE_2A_BINDING): -0.5386
- NES (GOMF_PROTEIN_PHOSPHATASE_2A_BINDING, padj 0.0201355): -1.753
- ES (GOMF_PROTEIN_SERINE_THREONINE_KINASE_ACTIVITY): -0.3032
- NES (GOMF_PROTEIN_SERINE_THREONINE_KINASE_ACTIVITY, padj 0.0120933): -1.428
- ES (GOMF_PROTEIN_TYROSINE_PHOSPHATASE_ACTIVITY): -0.3851
- NES (GOMF_PROTEIN_TYROSINE_PHOSPHATASE_ACTIVITY, padj 0.0351889): -1.569
- ES (GOMF_PROTON_CHANNEL_ACTIVITY): 0.5654
- NES (GOMF_PROTON_CHANNEL_ACTIVITY, padj 0.036911): 1.8848
- ES (GOMF_PROTON_TRANSPORTING_ATP_SYNTHASE_ACTIVITY_ROTATIONAL_MECHANISM): 0.5869
- NES (GOMF_PROTON_TRANSPORTING_ATP_SYNTHASE_ACTIVITY_ROTATIONAL_MECHANISM, padj 0.0283897): 1.877
- ES (GOMF_REGULATORY_RNA_BINDING): -0.5385
- NES (GOMF_REGULATORY_RNA_BINDING, padj 0.00683082): -1.8485
- ES (GOMF_RIBONUCLEOPROTEIN_COMPLEX_BINDING): -0.5611
- NES (GOMF_RIBONUCLEOPROTEIN_COMPLEX_BINDING, padj 7.15005e-11): -2.398
- ES (GOMF_RNA_POLYMERASE_CORE_ENZYME_BINDING): -0.5304
- NES (GOMF_RNA_POLYMERASE_CORE_ENZYME_BINDING, padj 0.00672226): -1.848
- ES (GOMF_RNA_POLYMERASE_II_SPECIFIC_DNA_BINDING_TRANSCRIPTION_FACTOR_BINDING): -0.3093
- NES (GOMF_RNA_POLYMERASE_II_SPECIFIC_DNA_BINDING_TRANSCRIPTION_FACTOR_BINDING, padj 0.0419799): -1.413
- ES (GOMF_RNA_POLYMERASE_II_TRANSCRIPTION_COREGULATOR_BINDING): -0.521
- NES (GOMF_RNA_POLYMERASE_II_TRANSCRIPTION_COREGULATOR_BINDING, padj 0.0452435): -1.627
- ES (GOMF_RNA_POLYMERASE_II_TRANSCRIPTION_COREPRESSOR_BINDING): -0.5717
- NES (GOMF_RNA_POLYMERASE_II_TRANSCRIPTION_COREPRESSOR_BINDING, padj 0.0607303): -1.658
- ES (GOMF_SCAVENGER_RECEPTOR_ACTIVITY): 0.3949
- NES (GOMF_SCAVENGER_RECEPTOR_ACTIVITY, padj 0.0600708): 1.665
- ES (GOMF_SMAD_BINDING): -0.4569
- NES (GOMF_SMAD_BINDING, padj 0.00360904): -1.79
- ES (GOMF_SNORNA_BINDING): -0.7989
- NES (GOMF_SNORNA_BINDING, padj 3.3197e-10): -2.624
- ES (GOMF_SUMO_BINDING): -0.6876
- NES (GOMF_SUMO_BINDING, padj 0.00672226): -1.882
- ES (GOMF_SUMO_TRANSFERASE_ACTIVITY): -0.594
- NES (GOMF_SUMO_TRANSFERASE_ACTIVITY, padj 0.0682113): -1.626
- ES (GOMF_S_ADENOSYLMETHIONINE_DEPENDENT_METHYLTRANSFERASE_ACTIVITY): -0.5424
- NES (GOMF_S_ADENOSYLMETHIONINE_DEPENDENT_METHYLTRANSFERASE_ACTIVITY, padj 2.7667e-10): -2.336
- ES (GOMF_THIOLESTER_HYDROLASE_ACTIVITY): 0.4211
- NES (GOMF_THIOLESTER_HYDROLASE_ACTIVITY, padj 0.0377403): 1.7345
- ES (GOMF_TRANSCRIPTION_COREGULATOR_BINDING): -0.4265
- NES (GOMF_TRANSCRIPTION_COREGULATOR_BINDING, padj 0.0442278): -1.612
- ES (GOMF_TRANSCRIPTION_COREPRESSOR_BINDING): -0.5161
- ES (GOMF_TRANSITION_METAL_ION_BINDING): -0.2675
- NES (GOMF_TRANSITION_METAL_ION_BINDING, padj 0.0113612): -1.302
- ES (GOMF_TRANSLATION_REGULATOR_ACTIVITY): -0.5628
- NES (GOMF_TRANSLATION_REGULATOR_ACTIVITY, padj 1.90601e-11): -2.407
- ES (GOMF_TRNA_BINDING): -0.6579
- NES (GOMF_TRNA_BINDING, padj 2.7667e-10): -2.532
- ES (GOMF_UBIQUITIN_LIKE_PROTEIN_BINDING): -0.3584
- NES (GOMF_UBIQUITIN_LIKE_PROTEIN_BINDING, padj 0.0474647): -1.467
- ES (GOMF_UNFOLDED_PROTEIN_BINDING): -0.3758
- NES GOCC_NUCLEOLUS (GSEA CAP vs Veh, C5 GO CC, padj 2.86725e-63): -2.612
- NES GOCC_RIBONUCLEOPROTEIN_COMPLEX (GSEA CAP vs Veh, C5 GO CC, padj 3.5373e-43): -2.521
- NES GOCC_NUCLEAR_BODY (GSEA CAP vs Veh, C5 GO CC, padj 3.83827e-29): -2.196
- NES GOCC_PRERIBOSOME (GSEA CAP vs Veh, C5 GO CC, padj 8.43804e-27): -3.164
- NES GOCC_CHROMOSOMAL_REGION (GSEA CAP vs Veh, C5 GO CC, padj 8.8925e-17): -2.317
